Results reported in PMC4411097, “Pachymic Acid Inhibits Growth and Induces Apoptosis of Pancreatic Cancer In Vitro and In Vivo by Targeting ER Stress” (PLoS ONE, 2015).

Assays:
MIA PaCa-2 = test system: MIA PaCa-2; parameters: method as in PMID 23588713; conditions: MIA PaCa-2, 24 h; read-out: IC50-24 h, inhibition of proliferation; cited from earlier work
[1] = test system: ATF4 and CHOP in MIA PaCa-2 tumor tissues; assay: Western blot of tumor tissues; format: in vivo, female nude mice; conditions: 25 mg kg^-1, vs controls
Experimental: (§1) PANC-1, MIA PaCa-2 cells were treated with PA (0–30 μM) for 10 min, 30 min or 24 h, respectively. Whole protein extracts isolated from cells and tumor tissues were prepared and western blot analysis with anti-cleaved PARP, anti-XBP-1s, anti-ATF6, anti-ATF4, anti-Hsp70, anti-CHOP, anti-phospho-eIF2α or anti-eIF2α antibodies were performed as previously described. Western blots were quantified with HP-Scanjet 550c and analyzed by UN-SCAN-IT software (Silk Scientific, Orem, UT). Three independent experiments were done for all the immunoblot studies and quantitative data composed of all the experiments with statistical analysis were added below the representative blot image.

[2] = test system: MIA PaCa-2 tumor xenograft; assay: Human pancreatic tumor xenograft experiment; format: in vivo, female nude mice; conditions: day 34; for Average tumor volume: control approximately 448 mm^3
Experimental: Animal experiments were conducted strictly in accordance with the protocol approved by the Animal Research Committee at the Methodist Hospital (protocol no. 2011–07). MIA PaCa-2 cells (3x10^6) in 100 μl DPBS were implanted subcutaneously in the right flank on the ventral side of the 6 weeks old female nude mice (Harlan, Indianapolis, IN, USA). When tumors became palpable after 1–3 weeks (40–60 mm^3), animals were randomly assigned into three groups (n = 15) and received intraperitoneal (i.p.) injection 3 times per week of vehicle or PA (25 mg kg^-1 and 50 mg kg^-1) of body weight for additional 5 weeks. Tumor sizes were measured 3 times per week with microcalipers and the tumor volumes were calculated with the standard formula: tumor volume (mm^3) = L x W^2 x 0.5, where L is the length and W is the width of the tumor. At the end of the experiment (Day 35), the mice were euthanized by CO2 inhalation. The tumors were harvested and fixed in 10% neutral-buffered formalin at 4°C for 24 h or snap frozen and stored separately in liquid nitrogen.

[3] = test system: ER stress response proteins in MIA PaCa-2 cells; assay: Western blot of ER stress response proteins; format: cell-based, human
Experimental: as §1

[4] = test system: ER stress response proteins in PANC-1 cells; assay: Western blot of ER stress response proteins; format: cell-based, human
Experimental: as §1

[5] = test system: MIA PaCa-2 tumor xenograft; assay: Apoptosis measurement in tumor xenograft (apoptotic bodies, H&E); format: in vivo, female nude mice
Experimental: All formalin-fixed tumors were embedded in paraffin within 48 h and five-micrometer sections were stained with hematoxylin and eosin (H&E). The slides were viewed under a Leica microscope (Leica Instruments, Melville, NY) and apoptosis in the viable tumor cell area was quantified by counting apoptotic bodies in four 20 x fields of view for n = 6–12 tumors per group by 2 independent observers.

[6] = test system: HSPA6 and CHOP in MIA PaCa-2 tumor tissues; assay: Quantitative RT-PCR of tumor tissues; format: in vivo, female nude mice; conditions: 25 mg kg^-1, vs controls
Experimental: The quantitative real-time polymerase chain reaction (qRT-PCR) was performed using ABI PRISM 7900HT Fast Real-Time PCR System (Applied Biosystems, Foster City, CA) according to the manufacturer's instructions. Total RNA was isolated from tumors with RNeasy Mini Kit (Qiagen, Valencia, CA). RNA quality was monitored and quantified using the Qubit 2.0 Fluorometer (Invitrogen, Carlsbad, CA). The RNA samples were reverse transcribed into cDNA using High Capacity cDNA Reverse Transcription Kit (Applied Biosystems, Foster City, CA). The cDNA (100 ng per sample) was subjected to qPCR analysis in triplicate. Analysis of the relative quantity gene expression (RQ) of HSPA6 and CHOP was normalized by ACTB expression and was performed using the 2^-ΔΔCt method.

[7] = parameters: method as in PMID 22213174; conditions: rats fed by P. cocos; cited from earlier work
[8] = 25 mg kg^-1 i.p. 3 times per week
[9] = 50 mg kg^-1 i.p. 3 times per week

C=C(CC[C@@H](C(=O)O)[C@H]1[C@H](O)C[C@@]2(C)C3=C(CC[C@]12C)[C@@]1(C)CC[C@H](OC(C)=O)C(C)(C)[C@@H]1CC3)C(C)C [PA, Pachymic acid]
IC50 (MIA PaCa-2): 26.6 µM
Expression of ATF4 and CHOP proteins in tumors [1]: significant increase
Inhibition of tumor volume vs control [2, 8]: ~75%
Average tumor volume [2, 8]: about 112 mm^3
Inhibition of tumor volume vs control [2, 9]: ~80%
Average tumor volume [2, 9]: ~89 mm^3
PA-phosphorylated eIF2α vs control ([3]; MIA PaCa-2, 30 μM PA, 10 min): ~3 fold
Activation of XBP1 and ATF4 (protein level) ([3]; MIA PaCa-2, PA 0–30 μM, 24 h): significantly activated
PA-phosphorylated eIF2α vs control ([4]; PANC-1, 30 μM PA, 10 min): ~2 fold
Activation of XBP1 and ATF4 (protein level) ([4]; PANC-1, PA 0–30 μM, 24 h): significantly activated
Increase of apoptotic bodies in tumors vs control ([5]; 25 mg kg^-1): approximately 59%
Increase of apoptotic bodies in tumors vs control ([5]; 50 mg kg^-1): ~2 fold
Significant increase of HSPA6 and CHOP/GADD153 mRNA in tumors [6]: not observed
Presence in urine and plasma [7]: detectable
